In brackets after ≈: the same amount, converted by molar mass. Each block holds one compound with its values, some of them ahead of it.
What was measured:
[1] = target: T1, Inhibitor of nuclear factor kappa-B kinase subunit epsilon (Homo sapiens, UniProt Q14164); assay: Inhibition of human recombinant IKKepsilon by TR-FRET assay
T1 sequence (Q14164 whole entry): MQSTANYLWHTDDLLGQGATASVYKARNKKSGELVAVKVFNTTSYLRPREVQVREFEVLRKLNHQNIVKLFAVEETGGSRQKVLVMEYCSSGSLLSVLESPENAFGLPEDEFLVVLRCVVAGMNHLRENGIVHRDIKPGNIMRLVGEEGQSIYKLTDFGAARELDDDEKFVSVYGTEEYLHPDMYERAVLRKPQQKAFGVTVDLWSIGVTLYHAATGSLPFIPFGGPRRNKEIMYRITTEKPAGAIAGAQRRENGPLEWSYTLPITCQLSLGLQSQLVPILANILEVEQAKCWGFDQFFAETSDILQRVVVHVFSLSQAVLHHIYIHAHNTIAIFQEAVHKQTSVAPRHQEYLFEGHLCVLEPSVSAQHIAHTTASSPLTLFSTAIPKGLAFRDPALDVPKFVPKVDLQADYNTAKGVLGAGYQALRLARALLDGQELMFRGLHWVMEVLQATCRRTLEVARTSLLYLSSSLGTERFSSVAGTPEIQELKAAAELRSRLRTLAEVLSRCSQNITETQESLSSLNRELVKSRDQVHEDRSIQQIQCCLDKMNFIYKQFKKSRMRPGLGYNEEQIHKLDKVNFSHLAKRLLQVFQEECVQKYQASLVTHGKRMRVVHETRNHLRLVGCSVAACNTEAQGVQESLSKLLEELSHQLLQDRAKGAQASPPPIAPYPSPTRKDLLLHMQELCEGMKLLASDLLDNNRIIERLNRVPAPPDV

[2] = target: Serine/threonine-protein kinase PLK1 (Homo sapiens, UniProt P53350); assay: Inhibition of PLK1
Serine/threonine-protein kinase PLK1, sequence (P53350 whole entry): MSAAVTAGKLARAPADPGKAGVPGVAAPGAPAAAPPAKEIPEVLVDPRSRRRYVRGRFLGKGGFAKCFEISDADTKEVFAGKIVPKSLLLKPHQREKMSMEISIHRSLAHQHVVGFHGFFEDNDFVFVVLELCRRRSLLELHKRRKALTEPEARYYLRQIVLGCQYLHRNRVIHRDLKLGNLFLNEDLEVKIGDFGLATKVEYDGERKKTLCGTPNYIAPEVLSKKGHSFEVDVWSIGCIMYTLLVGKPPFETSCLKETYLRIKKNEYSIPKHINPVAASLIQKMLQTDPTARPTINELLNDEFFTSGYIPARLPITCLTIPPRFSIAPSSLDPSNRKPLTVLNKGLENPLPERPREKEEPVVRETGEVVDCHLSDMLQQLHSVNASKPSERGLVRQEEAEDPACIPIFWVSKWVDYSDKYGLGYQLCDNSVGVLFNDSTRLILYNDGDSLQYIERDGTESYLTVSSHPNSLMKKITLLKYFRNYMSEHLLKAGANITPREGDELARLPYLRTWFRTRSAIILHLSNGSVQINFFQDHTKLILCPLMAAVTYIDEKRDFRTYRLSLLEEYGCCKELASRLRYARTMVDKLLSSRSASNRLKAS

Cytochrome P450 2D6 = Cytochrome P450 2D6 (Homo sapiens, UniProt P10635); assay: Inhibition of CYP2D6; format: ADME
[3] = target: Receptor tyrosine-protein kinase erbB-2 (Homo sapiens, UniProt P04626); assay: Inhibition of ErB2
Receptor tyrosine-protein kinase erbB-2, sequence (P04626 whole entry): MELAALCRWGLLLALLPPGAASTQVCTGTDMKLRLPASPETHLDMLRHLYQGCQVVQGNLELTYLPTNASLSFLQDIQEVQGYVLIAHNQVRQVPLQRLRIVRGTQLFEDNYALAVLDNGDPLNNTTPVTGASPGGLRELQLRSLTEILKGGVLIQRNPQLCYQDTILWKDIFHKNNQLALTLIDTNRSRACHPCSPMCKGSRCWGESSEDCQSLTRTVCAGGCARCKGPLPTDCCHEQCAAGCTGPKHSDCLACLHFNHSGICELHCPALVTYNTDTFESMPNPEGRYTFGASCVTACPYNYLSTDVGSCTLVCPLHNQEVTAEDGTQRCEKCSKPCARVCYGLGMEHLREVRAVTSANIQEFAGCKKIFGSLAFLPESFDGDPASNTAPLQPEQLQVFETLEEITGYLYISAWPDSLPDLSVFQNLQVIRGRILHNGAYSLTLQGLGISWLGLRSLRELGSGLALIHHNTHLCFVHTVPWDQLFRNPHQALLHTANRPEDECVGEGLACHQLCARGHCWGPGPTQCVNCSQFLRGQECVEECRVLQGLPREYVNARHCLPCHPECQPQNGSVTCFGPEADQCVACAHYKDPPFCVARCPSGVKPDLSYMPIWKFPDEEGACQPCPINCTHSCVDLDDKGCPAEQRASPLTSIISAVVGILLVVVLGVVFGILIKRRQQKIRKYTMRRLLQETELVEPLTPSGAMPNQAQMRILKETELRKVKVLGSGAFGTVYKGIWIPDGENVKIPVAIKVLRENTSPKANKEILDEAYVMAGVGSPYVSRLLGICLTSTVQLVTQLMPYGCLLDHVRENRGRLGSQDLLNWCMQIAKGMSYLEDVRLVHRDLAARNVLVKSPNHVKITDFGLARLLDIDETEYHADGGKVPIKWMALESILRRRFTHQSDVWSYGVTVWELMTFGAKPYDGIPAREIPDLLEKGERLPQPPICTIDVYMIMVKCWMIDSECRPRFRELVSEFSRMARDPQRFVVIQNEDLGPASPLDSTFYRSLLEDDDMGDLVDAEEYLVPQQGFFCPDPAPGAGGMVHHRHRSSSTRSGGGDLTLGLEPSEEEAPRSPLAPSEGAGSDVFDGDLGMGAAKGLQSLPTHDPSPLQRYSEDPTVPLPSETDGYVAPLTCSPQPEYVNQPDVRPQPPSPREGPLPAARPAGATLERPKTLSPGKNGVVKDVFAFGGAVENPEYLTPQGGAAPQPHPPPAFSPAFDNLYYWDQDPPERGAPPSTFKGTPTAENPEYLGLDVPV

[4] = target: Epidermal growth factor receptor (Homo sapiens, UniProt P00533); assay: Inhibition of EGFR
Epidermal growth factor receptor, sequence (P00533 whole entry): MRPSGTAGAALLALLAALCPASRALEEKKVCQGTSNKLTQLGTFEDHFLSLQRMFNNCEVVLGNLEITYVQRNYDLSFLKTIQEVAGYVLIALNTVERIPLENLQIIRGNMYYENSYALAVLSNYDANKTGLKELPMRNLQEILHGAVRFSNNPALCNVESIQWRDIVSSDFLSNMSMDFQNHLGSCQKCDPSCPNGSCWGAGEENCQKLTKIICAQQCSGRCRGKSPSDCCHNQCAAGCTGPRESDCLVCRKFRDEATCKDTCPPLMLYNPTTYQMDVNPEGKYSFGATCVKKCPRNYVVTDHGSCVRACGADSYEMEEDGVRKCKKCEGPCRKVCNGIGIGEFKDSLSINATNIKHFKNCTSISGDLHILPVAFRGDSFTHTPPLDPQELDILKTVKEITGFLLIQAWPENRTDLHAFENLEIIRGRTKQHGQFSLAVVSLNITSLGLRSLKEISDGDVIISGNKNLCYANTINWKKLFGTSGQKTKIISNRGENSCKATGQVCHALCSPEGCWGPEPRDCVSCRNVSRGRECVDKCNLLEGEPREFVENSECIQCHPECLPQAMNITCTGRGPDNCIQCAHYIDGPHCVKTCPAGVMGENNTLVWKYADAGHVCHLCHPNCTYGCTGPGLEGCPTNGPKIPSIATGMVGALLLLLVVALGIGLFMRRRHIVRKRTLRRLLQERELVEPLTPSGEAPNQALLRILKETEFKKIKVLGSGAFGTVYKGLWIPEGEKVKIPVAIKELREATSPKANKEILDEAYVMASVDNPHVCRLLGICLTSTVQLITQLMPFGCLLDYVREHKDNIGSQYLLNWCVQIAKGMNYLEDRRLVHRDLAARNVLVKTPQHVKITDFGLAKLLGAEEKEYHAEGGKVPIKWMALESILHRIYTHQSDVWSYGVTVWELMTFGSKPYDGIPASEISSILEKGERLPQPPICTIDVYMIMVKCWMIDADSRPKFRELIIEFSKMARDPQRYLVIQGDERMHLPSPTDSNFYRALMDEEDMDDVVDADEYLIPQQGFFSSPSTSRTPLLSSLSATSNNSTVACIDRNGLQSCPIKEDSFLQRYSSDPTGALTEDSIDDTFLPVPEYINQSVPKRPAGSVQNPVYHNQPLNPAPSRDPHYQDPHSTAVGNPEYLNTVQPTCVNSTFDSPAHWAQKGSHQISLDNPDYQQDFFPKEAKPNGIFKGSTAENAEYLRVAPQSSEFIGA

[5] = target: Mitogen-activated protein kinase 14 (Homo sapiens, UniProt Q16539); assay: Inhibition of p38alpha
[6] = target: Mitogen-activated protein kinase 11 (Homo sapiens, UniProt Q15759); assay: Inhibition of p38beta
Mitogen-activated protein kinase 11, sequence (Q15759 whole entry): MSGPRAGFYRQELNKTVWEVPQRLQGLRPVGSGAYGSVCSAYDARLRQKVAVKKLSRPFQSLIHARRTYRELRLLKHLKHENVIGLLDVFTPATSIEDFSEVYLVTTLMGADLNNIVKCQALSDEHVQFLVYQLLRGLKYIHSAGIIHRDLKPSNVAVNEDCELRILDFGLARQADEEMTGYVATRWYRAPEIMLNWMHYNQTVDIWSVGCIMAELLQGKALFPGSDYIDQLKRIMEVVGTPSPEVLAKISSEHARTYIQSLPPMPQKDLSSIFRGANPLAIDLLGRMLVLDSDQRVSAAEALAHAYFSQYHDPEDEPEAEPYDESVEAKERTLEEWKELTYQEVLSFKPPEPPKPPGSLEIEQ

Cytochrome P450 1A2 = target: T2, Cytochrome P450 1A2 (Homo sapiens, UniProt P05177); assay: Inhibition of CYP1A2; format: ADME
T2 sequence (P05177 whole entry): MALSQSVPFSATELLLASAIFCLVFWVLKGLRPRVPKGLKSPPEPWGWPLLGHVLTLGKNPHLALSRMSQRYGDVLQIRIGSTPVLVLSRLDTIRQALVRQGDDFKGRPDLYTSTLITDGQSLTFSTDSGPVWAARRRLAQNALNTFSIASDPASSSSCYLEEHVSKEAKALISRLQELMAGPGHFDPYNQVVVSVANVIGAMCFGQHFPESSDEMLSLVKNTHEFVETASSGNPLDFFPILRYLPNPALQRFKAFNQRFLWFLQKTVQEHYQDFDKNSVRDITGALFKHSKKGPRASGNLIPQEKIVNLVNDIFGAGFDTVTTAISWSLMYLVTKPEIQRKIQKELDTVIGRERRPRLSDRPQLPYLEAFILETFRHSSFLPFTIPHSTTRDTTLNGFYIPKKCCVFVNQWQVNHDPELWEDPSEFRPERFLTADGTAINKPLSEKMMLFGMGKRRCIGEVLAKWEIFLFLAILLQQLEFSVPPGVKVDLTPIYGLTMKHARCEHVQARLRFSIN

[7] = Aqueous solubility of the compound; format: physicochemical; details: buffer
[8] = target: Mitogen-activated protein kinase 10 (Homo sapiens, UniProt P53779); assay: Inhibition of JNK3
Mitogen-activated protein kinase 10, sequence (P53779 whole entry): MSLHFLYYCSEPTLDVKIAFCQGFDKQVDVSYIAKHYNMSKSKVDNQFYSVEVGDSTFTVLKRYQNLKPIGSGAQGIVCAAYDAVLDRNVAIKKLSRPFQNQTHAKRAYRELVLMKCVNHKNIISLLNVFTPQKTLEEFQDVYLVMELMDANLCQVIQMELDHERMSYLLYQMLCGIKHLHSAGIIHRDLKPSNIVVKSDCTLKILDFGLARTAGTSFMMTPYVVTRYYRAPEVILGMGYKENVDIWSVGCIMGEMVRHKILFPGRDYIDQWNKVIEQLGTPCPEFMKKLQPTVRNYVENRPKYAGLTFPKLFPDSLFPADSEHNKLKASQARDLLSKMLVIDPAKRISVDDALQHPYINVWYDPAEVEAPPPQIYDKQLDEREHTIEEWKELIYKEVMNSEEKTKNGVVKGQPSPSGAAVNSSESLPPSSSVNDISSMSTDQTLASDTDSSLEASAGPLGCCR

Cytochrome P450 3A4 = Cytochrome P450 3A4 (Homo sapiens, UniProt P08684); assay: Inhibition of CYP3A4; format: ADME
Cytochrome P450 3A4, sequence (P08684 whole entry): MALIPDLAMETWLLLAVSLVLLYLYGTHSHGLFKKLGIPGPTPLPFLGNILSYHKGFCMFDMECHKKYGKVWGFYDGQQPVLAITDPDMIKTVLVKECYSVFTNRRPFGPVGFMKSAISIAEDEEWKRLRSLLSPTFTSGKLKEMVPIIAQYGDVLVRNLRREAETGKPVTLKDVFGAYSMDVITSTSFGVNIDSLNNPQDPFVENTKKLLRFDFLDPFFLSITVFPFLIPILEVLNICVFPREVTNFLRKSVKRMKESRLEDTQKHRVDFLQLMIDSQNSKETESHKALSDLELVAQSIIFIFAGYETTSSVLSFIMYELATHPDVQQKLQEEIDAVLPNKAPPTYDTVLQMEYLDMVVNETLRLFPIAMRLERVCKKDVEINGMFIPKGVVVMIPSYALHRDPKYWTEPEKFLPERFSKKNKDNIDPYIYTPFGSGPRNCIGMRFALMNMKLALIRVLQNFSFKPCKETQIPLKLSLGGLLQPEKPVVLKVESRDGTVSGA

[9] = target: Glycogen synthase kinase-3 (Homo sapiens, UniProt P49840+P49841); assay: Inhibition of GSK3; format: protein assay
TGF-beta receptor type-1 = target: T3, TGF-beta receptor type-1 (Homo sapiens, UniProt P36897); assay: Inhibition of Alk5
T3 sequence (P36897 whole entry): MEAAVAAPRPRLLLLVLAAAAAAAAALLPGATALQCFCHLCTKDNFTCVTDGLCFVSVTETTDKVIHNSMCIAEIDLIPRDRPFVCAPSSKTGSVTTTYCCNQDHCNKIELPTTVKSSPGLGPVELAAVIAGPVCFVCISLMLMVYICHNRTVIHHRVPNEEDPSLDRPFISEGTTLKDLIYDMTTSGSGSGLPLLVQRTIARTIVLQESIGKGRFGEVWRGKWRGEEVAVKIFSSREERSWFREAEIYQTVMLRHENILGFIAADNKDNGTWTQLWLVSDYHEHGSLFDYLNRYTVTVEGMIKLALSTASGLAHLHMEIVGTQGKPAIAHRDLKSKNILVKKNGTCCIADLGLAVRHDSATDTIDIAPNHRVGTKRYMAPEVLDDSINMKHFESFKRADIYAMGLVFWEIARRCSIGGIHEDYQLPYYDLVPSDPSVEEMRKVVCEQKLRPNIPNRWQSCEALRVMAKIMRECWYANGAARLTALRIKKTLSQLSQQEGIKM

Cytochrome P450 2C9 = Cytochrome P450 2C9 (Homo sapiens, UniProt P11712); assay: Inhibition of CYP2C9; format: ADME
Cytochrome P450 2C9, sequence (P11712 whole entry): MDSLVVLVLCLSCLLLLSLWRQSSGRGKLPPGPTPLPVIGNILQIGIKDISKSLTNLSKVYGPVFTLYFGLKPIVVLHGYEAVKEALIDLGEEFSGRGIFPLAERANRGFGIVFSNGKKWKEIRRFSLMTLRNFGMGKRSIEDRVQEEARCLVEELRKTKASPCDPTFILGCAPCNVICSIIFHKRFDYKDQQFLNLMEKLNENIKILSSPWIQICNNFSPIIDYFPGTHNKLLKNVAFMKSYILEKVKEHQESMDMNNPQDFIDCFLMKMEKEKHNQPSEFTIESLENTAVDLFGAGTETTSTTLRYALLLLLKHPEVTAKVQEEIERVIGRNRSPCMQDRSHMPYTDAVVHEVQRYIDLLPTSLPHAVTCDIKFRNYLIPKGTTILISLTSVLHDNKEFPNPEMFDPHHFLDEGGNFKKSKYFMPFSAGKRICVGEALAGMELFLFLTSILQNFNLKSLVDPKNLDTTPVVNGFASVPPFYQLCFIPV

Compound: COc1cc2ncn(-c3cc(O[C@H](C)c4ccccc4C(F)(F)F)c(C#N)s3)c2cc1OC
- IC50 [1]: 3.98 µM

Compound: COc1cc2ncn(-c3cc(O[C@H](C)c4ccccc4Cl)c(C(N)=O)s3)c2cc1OC [GSK-237701A]
- IC50 [1]: 20 µM

Compound: COc1cc2ncn(-c3cc(OCc4ccc(S(C)(=O)=O)cc4)c(C#N)s3)c2cc1OC
- IC50 [2]: 0.631 µM
- IC50 [1]: 5.01 µM

Compound: COc1cc2ncn(-c3cc(OCCN4CCCCC4)c(C#N)s3)c2cc1OC
- IC50 [1]: 5.01 µM

Compound: COc1cc2ncn(-c3cc(O)c(C#N)s3)c2cc1OC
- IC50 [1]: 2.51 µM

Compound: COc1cc2ncn(-c3cc(OCc4ccc(C(N)=O)cc4)c(C#N)s3)c2cc1OC
- IC50 [1]: 12.6 µM

Compound: COc1cc2ncn(-c3cc(OCc4ccccc4)c(C(=O)O)s3)c2cc1OC
- IC50 [2]: 0.631 µM
- IC50 [1]: > 15.8 µM

Compound: COc1cc2ncn(-c3cc(OCc4ccc(S(C)(=O)=O)cc4)c(C(N)=O)s3)c2cc1OC
- IC50 [2]: 0.126 µM

Compound: COc1cc2ncn(-c3cc(OCC4CCCO4)c(C(N)=O)s3)c2cc1OC (configuration not stated)
- IC50 [2]: 0.251 µM

Compound: COc1cc2ncn(-c3cc(OCC4CC4)c(C#N)s3)c2cc1OC
- IC50 [1]: 3.16 µM

The remaining compounds from weak to strong by IC50 [1], led by results:

- IC50 [1]: 1.58 µM
Compound: COc1cc2ncn(-c3cc(OCCN4CCOCC4)c(C#N)s3)c2cc1OC

- IC50 [1]: 1 µM
Compound: N#Cc1sc(-n2cnc3ccccc32)cc1OCc1ccccc1

- IC50 [1]: 0.794 µM
Compound: COc1cc2ncn(-c3cc(OCC4CCCO4)c(C#N)s3)c2cc1OC (configuration not stated)

- IC50 [1]: 0.251 µM
Compound: COc1cc2ncn(-c3cc(OCc4ccccc4C(F)(F)F)c(C#N)s3)c2cc1OC

- IC50 [1]: 0.0501 µM
Compound: COc1cc2c(cc1OCCN1CCOCC1)ncn2-c1cc(OCc2ccccc2C(F)(F)F)c(C#N)s1

- IC50 [2]: 0.794 µM
- IC50 (Cytochrome P450 2D6): > 50.1 µM
- IC50 [3]: > 10 µM
- IC50 [4]: > 10 µM
- IC50 [1]: 0.0398 µM
- IC50 [5]: > 15.8 µM
- IC50 [6]: > 15.8 µM
- IC50 (Cytochrome P450 1A2): > 50.1 µM
- solubility [7]: 60 µM (≈ 28.2 µg/mL)
- IC50 [8]: > 15.8 µM
- IC50 (Cytochrome P450 3A4): > 50.1 µM
- Log IC50 [9]: > -4.8
- IC50 (TGF-beta receptor type-1): > 5.01 µM
- IC50 (Cytochrome P450 2C9): > 50.1 µM
Compound: COc1cc2ncn(-c3cc(OCc4ccccc4S(C)(=O)=O)c(C#N)s3)c2cc1OC [GSK-319347A]

- IC50 [1]: 0.0251 µM
Compound: COc1cc2c(cc1OCCCO)ncn2-c1cc(OCc2ccccc2C(F)(F)F)c(C#N)s1
